Measurements: patent publication US8354225B1, “Amplification of oligonucleotides containing non-standard nucleobases” (priority 2004, dated 2013)

Legend:
[1] = cited from earlier work
[2] = system: d(puADA) in the template (T3); assay: Paused-extension screen of polymerases; format: biochemical; conditions: template T3, primer P3, dNTPs, 72° C., 15 seconds
Experimental: FIG. 6. Use of Taq and DeepVent (DV) exo^+ polymerases as sequencing tools. Both polymerases were incubated with template T3, primer P3, and dNTPs.P=primer alone, 19 nts in length. […] Deep Vent exo appears to be degrading the primer, and perhaps the product as well.
Radiolabeled primer P3 (1 pmol) was mixed with template T3 (2 pmol), Thermopol buffer (1.5 μL, 10×), dATP, dCTP, dTTP, dGTP (final conc. 10 μM each), and water to a final volume of 14 μL. The mixture was heated to 95° C. for 10 min. and allowed to cool to ambient for 1 hour. The respective polymerase (Taq, Vent, Deep Vent, Vent exo^−, or Deep Vent exo−) was added (1 μL, 2 U/μL) and the reaction incubated at 72° C. for 15 seconds. The reaction was quenched with 20 mM EDTA in PAGE loading buffer (15 μL) and subsequently analyzed by electrophoresis on a 20% PAGE gel. The gel was analyzed using the MolecularImager software.

Compound: Nc1ccnc(N)n1 [py(DAD), 2,4-diaminopyrimidine]
- pKa of the conjugate acid ([1]; protonated heterocycle): ≈ 6.7

Compound: Taq polymerase: Taq polymerase used as sequencing tool
- elongation upon encountering dX / d(puADA) in the template [2]: terminates the elongation of a primer
- elongation upon encountering dX / d(puADA) in the template ([2]; listed as Taq): abort elongation

Compound: O=c1[nH]c(=O)c2[nH]cnc2[nH]1 [pu(ADA), xanthine]
- pKa of the heterocycle (acid) ([1]; free heterocycle): ca. 5.7
